Each compound was assayed against T1, c-MET (Homo sapiens, UniProt P08581) (assay: Met Transphosphorylation Assay (ELISA, poly(Glu,Tyr) 4:1 substrate)). Details: purified GST fusion protein containing the Met kinase domain.
T1 construct: Purified GST fusion protein containing the Met kinase domain, Sugen, Inc
Assay type: biochemical
Protocol: Met Transphosphorylation Assay
This assay is used to measure phosphotyrosine levels on a poly(glutamic acid:tyrosine (4:1)) substrate as a means for identifying agonists/antagonists of met transphosphorylation of the substrate.
6. Purified GST fusion protein containing the Met kinase domain, Sugen, Inc.
8. 10% aqueous (MilliQue H2O) DMSO.
10. 2× Kinase Dilution Buffer: for 100 ml, mix 10 mL 1M HEPES at pH 7.5 with 0.4 mL 5% BSA/PBS, 0.2 mL 0.1 M sodium orthovanadate and 1 mL 5M sodium chloride in 88.4 mL dH2O.
11. 4× ATP Reaction Mixture: for 10 mL, mix 0.4 mL 1 M manganese chloride and 0.02 mL 0.1 M ATP in 9.56 mL dH2O.
12. 4× Negative Controls Mixture: for 10 mL, mix 0.4 mL 1 M manganese chloride in 9.6 mL dH2O.
15. Antibody Dilution Buffer: for 100 mL, mix 10 mL 5% BSA/PBS, 0.5 mL 5% Carnation Instant Milk® in PBS and 0.1 mL 0.1 M sodium orthovanadate in 88.4 mL TBST.
16. Rabbit polyclonal antophosphotyrosine antibody, Sugen, Inc.
17. Goat anti-rabbit horseradish peroxidase conjugated antibody, Biosource, Inc.
18. ABTS Solution: for 1 L, mix 19.21 g citric acid, 35.49 g Na2HPO4 and 500 mg ABTS with sufficient dH2O to make 1 L.
19. ABTS/H2O2: mix 15 mL ABST solution with 2pL H2O2 five minutes before use.
1. Coat ELISA plates with 2 μg Poly(Glu—Tyr) in 100 μL PBS, store overnight at 4° C.
2. Block plate with 150 μL of 5% BSA/PBS for 60 min.
3. Wash plate twice with PBS, once with 50 mM Hepes buffer pH 7.4.
4. Add 50 μl of the diluted kinase to all wells. (Purified kinase is diluted with Kinase Dilution Buffer. Final concentration should be 10 ng/well.)
5. Add 25 μL of the test compound (in 4% DMSO) or DMSO alone (4% in dH2O) for controls to plate.
6. Incubate the kinase/compound mixture for 15 minutes.
7. Add 25 μL of 40 mM MnCl2 to the negative control wells.
8. Add 25 μL ATP/MnCl2 mixture to the all other wells (except the negative controls). Incubate for 5 min.
9. Add 25 μL 500 mM EDTA to stop reaction.
10. Wash plate 3× with TBST.
11. Add 100 μL rabbit polyclonal anti-Ptyr diluted 1:10,000 in Antibody Dilution Buffer to each well. Incubate, with shaking, at room temperature for one hour.
12. Wash plate 3× with TBST.
13. […] Add 100 μL per well and incubate at room temperature, with shaking, for one hour.
14. Wash plate 1× with PBS.
15. Add 100 μl of ABTS/H2O2 solution to each well.
16. If necessary, stop the development reaction with the addition of 100 μl of 0.2M HCl per well.
Met Transphosphorylation Assay Results

T1 sequence (P08581 1078-1345 limits assumed): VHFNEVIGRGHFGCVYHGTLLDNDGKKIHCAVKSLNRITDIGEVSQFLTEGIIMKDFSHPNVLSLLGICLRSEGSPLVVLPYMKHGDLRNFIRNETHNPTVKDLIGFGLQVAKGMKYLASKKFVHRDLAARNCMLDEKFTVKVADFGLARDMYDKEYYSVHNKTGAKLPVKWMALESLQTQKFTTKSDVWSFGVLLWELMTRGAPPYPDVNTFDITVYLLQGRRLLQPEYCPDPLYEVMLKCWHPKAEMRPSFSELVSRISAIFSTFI

IC50 [nM] | Structure (SMILES)
4 | Oc1ccc(Cc2nnc3ncc(-c4cccs4)nn23)cc1 [Example 2, 4-(6-Thiophen-2-yl-[1,2,4]triazolo[4,3-b][1,2,4]triazin-3-ylmethyl)-phenol]
50 | Fc1ccc(Cc2nnc3ncc(-c4ccccc4)nn23)cc1 [Example 4, 3-(4-Fluoro-benzyl)-6-phenyl-[1,2,4]triazolo[4,3-b][1,2,4]triazine]
13 | Fc1ccc(Cc2nnc3ncc(-c4cccs4)nn23)cc1 [Example 5, 3-(4-Fluoro-benzyl)-6-thiophen-2-yl-[1,2,4]triazolo[4,3-b][1,2,4]triazine]
45 | Fc1ccc(Cc2nnc3ncc(-c4ccc(Br)cc4)nn23)cc1 [Example 6, 6-(4-Bromo-phenyl)-3-(4-fluoro-benzyl)-[1,2,4]triazolo[4,3-b][1,2,4]triazine]
56 | Oc1ccc(Cc2nnc3nccnn23)cc1 [Example 7, 4-[1,2,4]Triazolo[4,3-b][1,2,4]triazin-3-ylmethyl-phenol]
> 20000 | Cc1nc2nnc(Cc3ccc(O)cc3)n2nc1C [Example 8, 4-(6,7-Dimethyl-[1,2,4]triazolo[4,3-b][1,2,4]triazin-3-ylmethyl)-phenol]
830 | Cc1nn2c(Cc3ccc(O)cc3)nnc2nc1N [Example 9, 4-(7-Amino-6-methyl-[1,2,4]triazolo[4,3-b][1,2,4]triazin-3-ylmethyl)-phenol]
